# Patent US20230129485A1, “SYSTEM AND METHOD FOR DETERMINING MATERIAL PROPERTIES OF MOLECULAR SYSTEMS FROM AN AB-INITIO PARAMETERIZED FORCE-FIELD” (InterX, Inc., priority 2021, published 2023)
# Read-outs that look alike come from different tables or passages of the source.
# Tests used:
# [1] = Free energy of hydration predicted with the QM-parameterized force field model (ARROW FF), classical MD and PIMD simulation in a water box; conditions: for water Arrow MD Error / water Arrow PIMD8 Error: Table 3; for water Arrow MD Error: absolute error of MD hydration free energy vs experiment; for water Arrow PIMD8 Error: absolute error of PIMD8 hydration free energy vs experiment; for Arrow PIMD8 Error: absolute error vs Exp (hydration)
# Source text: For example, the example QM-parameterized force-field molecular simulation process 400 can use Bennett Acceptance Ratio (BAR) to compute the free energy of hydration/solvation of the molecule in water or any other solvent. In some implementations, the analysis of the molecular dynamics simulations includes analysis, predication, and visualization of ensemble properties of atoms/molecules from atomic and molecular trajectories using the optimized parameters of the QM-parameterized force field model (i.e., the quantum mechanics rule-based reasoning technique) and the QM-parameterized force field model.
# In some simulations of the QM-parameterized force field molecular simulation process, the molecules were placed in a water or cyclohexane box of size 32×32×32 Å3. Particle-Mesh Ewald (PME) algorithm was used to compute the electrostatic interactions. A 32×32×32 grid mesh and 5th power spline interpolation order can be used to compute the inverse PME sum. 9 Å cutoffs were used to compute the direct PME sum as well as the exchange and dispersion interactions. Bulk corrections were applied to account for distance cut-off of dispersion interactions. Solvation free energies were computed by decoupling the interactions between the solute and the solvent molecules. Electrostatic, exchange-repulsion and dispersion interactions were switched off simultaneously using a lambda-dependent scaling (a scaling factor power=2 was used) and a soft-coring algorithm (maximal soft-coring radius=1.5 Å, soft-coring radius scaling factor power=1). 15 lambda points unequally spaced (X=0, 0.05, 0.1, 0.2, 0.3, 0.4, 0.5, 0.6, 0.7, 0.75, 0.8, 0.85, 0.9, 0.95, 1.0) were used to decouple the solute-solvent intermolecular interactions.
# In some simulations of the QM-parameterized force field molecular simulation process, energy minimization (10,000 steps) using the steepest descent algorithm was initially performed on all the simulation systems. This was followed by a 50 ps equilibration and 1 ns production runs in the isothermal-isobaric ensemble (NPT). […] Pressure was maintained at 1 atm using a MTTK barostat (relaxation time=5 ps). A Multiple Time Step (MTS) algorithm was used to integrate the equations of motion both for the classical and path-integral runs. […] The calculations were performed using the QM-parameterized force field model.
# Using the QM-parameterized force field model, the QM-parameterized force field device can compute or predict the solvation free energies using both the Bennett acceptance ratio (BAR) and thermodynamic integration (TI) method with <dH/dλ> values interpolated by cubic splines. […] FIG. 7A illustrates a <dH/dλ> dependence for desolvation of Anthracene in water. FIG. 7B illustrates accumulated statistical errors for TI calculations of AG desolvation of Anthracene in water.
# [2] = Free energy of hydration by Polarizable Continuum Model (PCM); conditions: absolute error vs Exp (hydration)
# Method: (§1) Due to unavailability of free energy data for the original COSMO model, the free energies of solvation for the molecule dataset are calculated using MolPro ver. […] The comparisons to other implicit solvent models such as SMD, PCM and COSMO-RS are limited to the overlap of the molecules computed using QM-parameterized force field model. The free energies of hydration as predicted by these implicit solvent models (SMD, PCM) were received.
# [3] = Free energy of hydration by Solvation Model Dielectric (SMD) implicit solvent model; conditions: absolute error vs Exp (hydration)
# Method: as §1
# [4] = implicit solvent model, values received; cited from earlier work
# [5] = implicit solvent model, values received; cited from earlier work; remark: listed apart in the source
# [6] = Free energy of hydration by COSMO-RS
# Method: as §1
# [7] = Free energy of hydration by COSMO implicit solvent model (MolPro ver. 2012); conditions: absolute error vs Exp (hydration)
# Method: as §1
# [8] = Table 3; free energy of hydration, experimental; cited from earlier work
# [9] = Table 3; CHEX/H2O partition coefficient, experimental; cited from earlier work
# [10] = CHEX/H2O partition coefficient (log D) predicted with the QM-parameterized force field model (ARROW FF)
# Source text: In some simulations, the example QM-parameterized force-field molecular simulation process includes using the functional form of the bonded interactions, with force constants and equilibrium values fitted to QM energies at the MP2/aug-cc-pVTZ level of theory. In some simulations, solvents of water and cyclohexane are selected. Cyclohexane (CHEX) is nonpolar and equilibrates relatively quickly. Reliable experimental data for both CHEX solvation free energies, as well as for the CHEX/H2O partition coefficients are used in these simulations.
# In some example simulations, solutes containing neutral chemical functional groups, for example carboxylic acids, alkanes, alkenes, aromatics, aldehydes, ketones, alcohols, amides, esters, thiols, sulfides, disulfides and heterocycles, are used. The simulations were performed independently by four groups using their own respective computational resources and architectures, and then averaged. FIGS. 9A-9C show solvation and hydration free energies predictions of various solutes, using the QM-parameterized force field model, in some embodiments.
# The straight line is a line of agreement between experimental and simulated/predicted values, and the gray bar is the range or chemical accuracy. […] The molecules here are a subset of those in a) because only those with experimental values for CHEX solvation can be included.
# [11] = Table 3; free energy of solvation in cyclohexane, experimental; cited from earlier work
# [12] = Table 3, absolute error of MD log D vs experiment
# [13] = Table 3, absolute error of PIMD log D vs experiment
SMILES,water Arrow MD Error [1],water Arrow PIMD8 Error [1],Arrow PIMD8 Error [1],PCM Error [2],SMD Error [3],PCM free energy of hydration [4],SMD free energy of hydration [5],COSMO-RS error [6],COSMO/Molpro Error [7],water Exp (hydration) [8],Exp (log D) [9],log D Arrow MD Error [10],log D Arrow PIMD Error [10],CHEX Exp (solvation) [11],"log D Arrow MD Error [10, 12]","log D Arrow PIMD Error [10, 13]"
C=C [Ethene],0.29 kcal/mol,0.19 kcal/mol,0.19 kcal/mol,2.08 kcal/mol,0.12 kcal/mol,-0.80 kcal/mol,1.40 kcal/mol,0.55 kcal/mol,2.95 kcal/mol,1.28 kcal/mol,–,–,–,–,–,–
CCCCCC [Hexane],0.94 kcal/mol,0.06 kcal/mol,0.06 kcal/mol,2.71 kcal/mol,0.11 kcal/mol,-0.20 kcal/mol,2.40 kcal/mol,0.06 kcal/mol,3.37 kcal/mol,2.51 kcal/mol,–,–,–,–,–,–
CCCCC [Pentane],–,–,–,–,–,–,–,–,–,–,4.28,0.39,0.17,–,–,–
CCC(C)=O [2-Butanone],0.43 kcal/mol,0.16 kcal/mol,0.16 kcal/mol,0.19 kcal/mol,0.09 kcal/mol,–,–,0.17 kcal/mol,4.15 kcal/mol,–,−0.18,–,–,-3.47 kcal/mol,0.11,0.21
C=CCCC [pent-1-ene],0.59 kcal/mol,0.25 kcal/mol,0.25 kcal/mol,2.48 kcal/mol,0.28 kcal/mol,-0.80 kcal/mol,1.40 kcal/mol,0.56 kcal/mol,3.57 kcal/mol,1.68 kcal/mol,–,–,–,–,–,–
CCCC=O [buytyraldehyde],0.61 kcal/mol,0.07 kcal/mol,0.07 kcal/mol,0.52 kcal/mol,0.18 kcal/mol,-3.70 kcal/mol,-3.00 kcal/mol,0.07 kcal/mol,4.47 kcal/mol,-3.18 kcal/mol,–,–,–,–,–,–
CCCS [Propanethiol],0.81 kcal/mol,0.40 kcal/mol,0.40 kcal/mol,1.15 kcal/mol,0.15 kcal/mol,-2.20 kcal/mol,-0.90 kcal/mol,–,2.88 kcal/mol,-1.05 kcal/mol,1.52,–,–,-3.12 kcal/mol,0.38,0.36
c1ccc2ccccc2c1 [Napthalene],0.74 kcal/mol,0.24 kcal/mol,0.24 kcal/mol,0.10 kcal/mol,0.90 kcal/mol,-2.30 kcal/mol,-1.50 kcal/mol,0.23 kcal/mol,2.11 kcal/mol,-2.40 kcal/mol,3.50,–,–,-7.17 kcal/mol,0.19,0.01
C=CC [Propene],0.48 kcal/mol,0.05 kcal/mol,0.05 kcal/mol,2.12 kcal/mol,0.12 kcal/mol,-0.80 kcal/mol,1.20 kcal/mol,0.32 kcal/mol,3.00 kcal/mol,1.32 kcal/mol,–,–,–,–,–,–
CCCC(=O)O [butyricacid],0.25 kcal/mol,0.40 kcal/mol,0.40 kcal/mol,2.05 kcal/mol,0.95 kcal/mol,-4.30 kcal/mol,-5.40 kcal/mol,0.11 kcal/mol,2.19 kcal/mol,-6.35 kcal/mol,–,–,–,–,–,–
C=CC=C [Buta-13-diene],0.31 kcal/mol,0.35 kcal/mol,0.35 kcal/mol,1.91 kcal/mol,0.29 kcal/mol,-1.30 kcal/mol,0.90 kcal/mol,0.47 kcal/mol,3.28 kcal/mol,0.61 kcal/mol,–,–,–,–,–,–
